Measurements published in the supplement of paper PMC10307832.

Columns and labels:
Assay in all cases: relative viability (nuclei count vs DMSO), 5 days (fraction); higher = more cells survive
LC-2-ad = test system: LC-2-ad
Method in brief: (§1)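 Dosing by pin tool came one day after lung cancer cell lines were seeded in 1536-well plates, using either one drug or a fixed anchor-drug dose plus five library-drug doses (not always all listed) in √10 steps. After 5 days, nuclei were counted on 4× images. Relative viability is treated-well nuclei count divided by vehicle-well nuclei count, and values are medians of duplicate plates.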

HCC-15 = test system: HCC-15
Method in brief: as §1

NCI-H661 = test system: NCI-H661
Method in brief: as §1

LXF-289 = test system: LXF-289
Method in brief: as §1

NCI-H1666 = test system: NCI-H1666
Method in brief: as §1

NCI-H322M = test system: NCI-H322M
Method in brief: as §1

UMC-11 = test system: UMC-11
Method in brief: as §1

NCI-H2342 = test system: NCI-H2342
Method in brief: as §1

NCI-H1944 = test system: NCI-H1944
Method in brief: as §1

LU99A = test system: LU99A
Method in brief: as §1

PC-3 [JPC-3] = test system: PC-3 [JPC-3]
Method in brief: as §1

NCI-H596 = test system: NCI-H596
Method in brief: as §1

HCC-78 = test system: HCC-78
Method in brief: as §1

NCI-H358 = test system: NCI-H358
Method in brief: as §1

NCI-H838 = test system: NCI-H838
Method in brief: as §1

LCLC-97TM1 = test system: LCLC-97TM1
Method in brief: as §1

NCI-H1651 = test system: NCI-H1651
Method in brief: as §1

ChaGo-K-1 = test system: ChaGo-K-1
Method in brief: as §1

SK-MES-1 = test system: SK-MES-1
Method in brief: as §1

BEN = test system: BEN
Method in brief: as §1

NCI-H2087 = test system: NCI-H2087
Method in brief: as §1

NCI-H650 = test system: NCI-H650
Method in brief: as §1

LK-2 = test system: LK-2
Method in brief: as §1

Oc1nc(-c2ccc(C(F)(F)F)cc2)nc2c1CSCC2 [XAV939] + N=C(N)NC(=N)NCCc1ccccc1 [Phenformin] (partner 250 µM)
relative viability (LC-2-ad; first compound 0.08 µM): 0.638 | relative viability (LC-2-ad; first compound 0.253 µM): 0.571 | relative viability (LC-2-ad; first compound 0.8 µM): 0.569 | relative viability (LC-2-ad; first compound 2.53 µM): 0.575 | relative viability (HCC-15; first compound 0.08 µM): 0.634 | relative viability (HCC-15; first compound 0.253 µM): 0.457 | relative viability (HCC-15; first compound 0.8 µM): 0.481 | relative viability (HCC-15; first compound 2.53 µM): 0.481 | relative viability (NCI-H661; first compound 0.08 µM): 0.277 | relative viability (NCI-H661; first compound 0.253 µM): 0.272 | relative viability (NCI-H661; first compound 0.8 µM): 0.281 | relative viability (NCI-H661; first compound 2.53 µM): 0.267 | relative viability (LXF-289; first compound 0.08 µM): 0.556 | relative viability (LXF-289; first compound 0.253 µM): 0.48 | relative viability (LXF-289; first compound 0.8 µM): 0.539 | relative viability (LXF-289; first compound 2.53 µM): 0.546 | relative viability (NCI-H1666; first compound 0.08 µM): 0.561 | relative viability (NCI-H1666; first compound 0.253 µM): 0.497 | relative viability (NCI-H1666; first compound 0.8 µM): 0.555 | relative viability (NCI-H1666; first compound 2.53 µM): 0.555 | relative viability (NCI-H322M; first compound 0.08 µM): 0.88 | relative viability (NCI-H322M; first compound 0.253 µM): 0.716 | relative viability (NCI-H322M; first compound 0.8 µM): 0.625 | relative viability (NCI-H322M; first compound 2.53 µM): 0.578 | relative viability (UMC-11; first compound 0.08 µM): 0.328 | relative viability (UMC-11; first compound 0.253 µM): 0.32 | relative viability (UMC-11; first compound 0.8 µM): 0.248 | relative viability (UMC-11; first compound 2.53 µM): 0.201 | relative viability (NCI-H2342; first compound 0.08 µM): 0.555 | relative viability (NCI-H2342; first compound 0.253 µM): 0.518 | relative viability (NCI-H2342; first compound 0.8 µM): 0.552 | relative viability (NCI-H2342; first compound 2.53 µM): 0.451 | relative viability (NCI-H1944; first compound 0.08 µM): 0.233 | relative viability (NCI-H1944; first compound 0.253 µM): 0.198 | relative viability (NCI-H1944; first compound 0.8 µM): 0.199 | relative viability (NCI-H1944; first compound 2.53 µM): 0.17 | relative viability (LU99A; first compound 0.08 µM): 0.956 | relative viability (LU99A; first compound 0.253 µM): 0.863 | relative viability (LU99A; first compound 0.8 µM): 0.807 | relative viability (LU99A; first compound 2.53 µM): 0.853 | relative viability (PC-3 [JPC-3]; first compound 0.08 µM): 0.441 | relative viability (PC-3 [JPC-3]; first compound 0.253 µM): 0.466 | relative viability (PC-3 [JPC-3]; first compound 0.8 µM): 0.474 | relative viability (PC-3 [JPC-3]; first compound 2.53 µM): 0.441 | relative viability (NCI-H596; first compound 0.08 µM): 0.699 | relative viability (NCI-H596; first compound 0.253 µM): 0.673 | relative viability (NCI-H596; first compound 0.8 µM): 0.764 | relative viability (NCI-H596; first compound 2.53 µM): 0.774 | relative viability (HCC-78; first compound 0.08 µM): 0.711 | relative viability (HCC-78; first compound 0.253 µM): 0.62 | relative viability (HCC-78; first compound 0.8 µM): 0.66 | relative viability (HCC-78; first compound 2.53 µM): 0.516 | relative viability (NCI-H358; first compound 0.08 µM): 0.311 | relative viability (NCI-H358; first compound 0.253 µM): 0.235 | relative viability (NCI-H358; first compound 0.8 µM): 0.311 | relative viability (NCI-H358; first compound 2.53 µM): 0.328 | relative viability (NCI-H838; first compound 0.08 µM): 0.649 | relative viability (NCI-H838; first compound 0.253 µM): 0.557 | relative viability (NCI-H838; first compound 0.8 µM): 0.521 | relative viability (NCI-H838; first compound 2.53 µM): 0.395 | relative viability (LCLC-97TM1; first compound 0.08 µM): 0.474 | relative viability (LCLC-97TM1; first compound 0.253 µM): 0.352 | relative viability (LCLC-97TM1; first compound 0.8 µM): 0.434 | relative viability (LCLC-97TM1; first compound 2.53 µM): 0.373 | relative viability (NCI-H1651; first compound 0.08 µM): 0.359 | relative viability (NCI-H1651; first compound 0.253 µM): 0.31 | relative viability (NCI-H1651; first compound 0.8 µM): 0.353 | relative viability (NCI-H1651; first compound 2.53 µM): 0.302 | relative viability (ChaGo-K-1; first compound 0.08 µM): 0.51 | relative viability (ChaGo-K-1; first compound 0.253 µM): 0.476 | relative viability (ChaGo-K-1; first compound 0.8 µM): 0.412 | relative viability (ChaGo-K-1; first compound 2.53 µM): 0.409 | relative viability (SK-MES-1; first compound 0.08 µM): 0.759 | relative viability (SK-MES-1; first compound 0.253 µM): 0.643 | relative viability (SK-MES-1; first compound 0.8 µM): 0.613 | relative viability (SK-MES-1; first compound 2.53 µM): 0.631 | relative viability (BEN; first compound 0.08 µM): 0.245 | relative viability (BEN; first compound 0.253 µM): 0.226 | relative viability (BEN; first compound 0.8 µM): 0.264 | relative viability (BEN; first compound 2.53 µM): 0.243 | relative viability (NCI-H2087; first compound 0.08 µM): 0.6 | relative viability (NCI-H2087; first compound 0.253 µM): 0.455 | relative viability (NCI-H2087; first compound 0.8 µM): 0.433 | relative viability (NCI-H2087; first compound 2.53 µM): 0.395 | relative viability (NCI-H650; first compound 0.08 µM): 0.474 | relative viability (NCI-H650; first compound 0.253 µM): 0.494 | relative viability (NCI-H650; first compound 0.8 µM): 0.439 | relative viability (NCI-H650; first compound 2.53 µM): 0.414 | relative viability (LK-2; first compound 0.08 µM): 0.458 | relative viability (LK-2; first compound 0.253 µM): 0.527 | relative viability (LK-2; first compound 0.8 µM): 0.484 | relative viability (LK-2; first compound 2.53 µM): 0.369
